{"source": "patent US20250320198A1", "about": "“SALT OF ENDOTHELIN A (ETA) RECEPTOR ANTAGONIST COMPOUND, AND PREPARATION METHOD THEREFOR AND MEDICAL USE THEREOF” (SHENZHEN SALUBRIS PHARMACEUTICALS CO., LTD, priority 2022, published 2025)", "key": {"[1]": {"assay": "Pharmacokinetic study of compound in rats (Embodiment 14), intragastric administration", "format": "in vivo", "details": "SD rats", "source_text": "SD rats: male, 200-300 g, purchased from Beijing Vital River Laboratory Animal Technology Co., Ltd.\nReagents: dimethyl sulfoxide (DMSO), polyethylene glycol 400 (PEG-400), normal saline, heparin, acetonitrile, formic acid, and propranolol (internal standard) are all commercially available.\nInstrument: Thermo Fisher Scientific LC-MS/MS (U300 UPLC, TSQ QUANTUMN ULTRA triple quadrupole mass spectrometer).\nThe compound was weighed and dissolved in a DMSO-PEG-400-normal saline (5:60:35, v/v/v) system. After intragastric administration to rats, 200 μL of venous blood was collected in a sodium-fluoride heparinized EP tube at 15 minutes, 30 minutes, 1 hour, 2 hours, 5 hours, 7 hours, and 24 hours after administration and centrifuged at 12000 rpm for 2 minutes. Plasma was taken and frozen and preserved at −80° C. for testing. A certain amount of samples for test was precisely weighed and dissolved in DMSO to 2 mg/mL as a stock solution. An appropriate amount of compound stock solution was accurately sucked, and diluted by adding acetonitrile to prepare a standard series solution. 20 μL of each of the above standard series solution was accurately sucked, 180 μL of blank plasma was added, and vortex mixing was performed to prepare plasma samples equivalent to plasma concentrations of 1 ng/mL, 3 ng/mL, 5 ng/mL, 10 ng/mL, 30 ng/mL, 100 ng/mL, 300 ng/mL, 1000 ng/mL, and 3000 ng/mL. […]"}, "[2]": {"assay": "Research on compound microsome: prototype remaining and transformation to Atrasentan in human liver microsomes (+NADPH)", "format": "in vitro ADME", "details": "human liver microsome (+NADPH), 37° C.", "protocol": "Human liver microsomes were all purchased from Rild Liver Disease Research (Shanghai) Co., Ltd.\nReagents: dimethyl sulfoxide (DMSO), acetonitrile, formic acid, and propranolol (internal standard) are all commercially available.\nInstrument: Thermo Fisher Scientific LC-MS (U300 UPLC, TSQ QUANTUMN ULTRA triple quadrupole mass spectrometer).\nA certain amount of compound was precisely weighed and dissolved in DMSO to prepare a 10 mM stock solution, and the stock solution was diluted with a diluent (ACN:H2O=1:1) to a 100 μM working solution, and then diluted with a 0.1 M potassium phosphate buffer solution to a 3 μM administration solution for later use. 75 μL of liver microsomes were taken and added into 925 μL of a 0.1 M potassium phosphate buffer solution to be mixed uniformly to obtain a 1.5 mg/mL liver microsome suspension, and the liver microsome suspension was pre-incubated at 37° C. for 10 minutes. Preparation at 0 o'clock: 15 μL of the above liver microsome suspension was taken and added into a 6 mM NADPH solution, 150 μL of a propranolol acetonitrile solution was added immediately for precipitation, and then 15 μL of the above administration solution was added and mixed uniformly for later use. Preparation of samples at 20 minutes and 60 minutes: 15 μL of the administration solution was taken, 15 μL of the liver microsome suspension and 15 μL of the 6 mM NADPH solution were added and mixed uniformly, and a mixture was incubated at 37° C. for 20 minutes and 60 minutes, respectively. The preparation of the above samples was carried out using dual-pore parallel operation. When the above samples are incubated to the relevant time point, 150 μL of the propranolol acetonitrile solution was added to terminate the reaction. All the above samples were centrifuged at 4000 rpm for 5 minutes, and 100 μL of a supernatant was taken, added into 100 μL of ultrapure water and mixed uniformly for LC-MS/MS analysis. LC-MS/MS detection conditions are as follows:\nChromatographic column: Waters ACQUITY™ PREMIER HSS T3, 50*2.1 mm, 1.8 μm.\nMobile phase: water (0.1% formic acid)—acetonitrile. Perform gradient elution according to the table below.\nAn initial 0 o'clock was taken as 100%, a relative residual content of the drug at each time point was calculated, and each time point of Atrasentan was taken as 100% to calculate the relative amount of transformation of the compound in the embodiment to Atrasentan."}, "[3]": {"assay": "Study on hygroscopicity by dynamic vapor sorption (DVS)", "format": "physicochemical", "protocol": "Hygroscopicity of sulphate, phosphate, hydrochloride, and oxalate was evaluated using a dynamic vapor sorption (DVS). The test collected percentage changes in mass of samples under a constant temperature condition of 25° C. with changes in humidity."}, "[4]": {"assay": "Study on stability of salts (chemical stability by HPLC)", "format": "physicochemical"}}, "data": [{"compound": "CCCCN(CCCC)C(=O)CN1C[C@H](c2ccc3c(c2)OCO3)[C@@H](C(=O)OC(C)OC(=O)OC2CC2)[C@@H]1c1ccc(OC)cc1", "note": "(stereo partly drawn) [Compound 7, 1-[(cyclopropoxycarbonyl)oxy]ethyl-(2R,3R,4S)-4-(benzo[d][1,3]dioxolane-5-yl)-1-[2-(dibutylamino)-2-oxoethyl]-2-(4-methoxyphenyl)pyrrolidine-3-carboxylate]", "values": [{"measurement": "Absorption after intragastric administration compared with Atrasentan (in words)", "setting": "[1]", "result": "not as good as that of Atrasentan"}, {"measurement": "Exposure level in rats compared with the same dosage of Atrasentan (in words)", "setting": "[1]", "result": "significantly lower than that of the same dosage of Atrasentan"}, {"measurement": "Prototype remaining quantity (%) Mean", "setting": "[2]; time 0 min (taken as 100%)", "result": 100.0, "unit": "%"}, {"measurement": "Prototype remaining quantity (%) Mean", "setting": "[2]; time 20 min", "result": 0.10, "unit": "%"}, {"measurement": "Prototype remaining quantity (%) Mean", "setting": "[2]; time 60 min", "result": 0.47, "unit": "%"}]}, {"compound": "CCCCN(CCCC)C(=O)CN1C[C@H](c2ccc3c(c2)OCO3)[C@@H](C(=O)OC(C)OC(=O)OC(C)C)[C@@H]1c1ccc(OC)cc1", "note": "(some centres unmarked) [Phosphate]", "values": [{"measurement": "Hygroscopicity (in words)", "setting": "[3]; 25° C.", "result": "lower hygroscopicity"}, {"measurement": "Vapor sorption", "setting": "[3]; 25° C./80% RH", "result": 1.52, "unit": "%"}, {"measurement": "Stability (in words)", "setting": "[4]; 25° C./60% RH and 40° C./75% RH, one week", "result": "good stability"}, {"measurement": "Purity (area %)", "setting": "[4]; 25° C./60% RH, one week", "result": 98.81, "unit": "area %"}, {"measurement": "Purity (area %)", "setting": "[4]; 40° C./75% RH, one week", "result": 95.49, "unit": "area %"}, {"measurement": "Purity (area %)", "setting": "[4]; Start", "result": 99.29, "unit": "area %"}]}]}
